Experimental data as given in patent US20060020036A1, “Methods and compositions to promote bone homestasis” (priority 2004, published 2006).
“Also recorded” adds a separate entry of the source.

Target: T1, NR1H3 (Homo sapiens, UniProt Q13133)
T1 construct: amplification of the complete open reading frame from ATG start codon to the stop codon of drugable genes; expressed in transfected cells; host or cells: primary human mesenchymal progenitor cells (MPCs), transduced with Ad5-NR1H3 and Ad-hCAR
T1 sequence (Q13133 1-447): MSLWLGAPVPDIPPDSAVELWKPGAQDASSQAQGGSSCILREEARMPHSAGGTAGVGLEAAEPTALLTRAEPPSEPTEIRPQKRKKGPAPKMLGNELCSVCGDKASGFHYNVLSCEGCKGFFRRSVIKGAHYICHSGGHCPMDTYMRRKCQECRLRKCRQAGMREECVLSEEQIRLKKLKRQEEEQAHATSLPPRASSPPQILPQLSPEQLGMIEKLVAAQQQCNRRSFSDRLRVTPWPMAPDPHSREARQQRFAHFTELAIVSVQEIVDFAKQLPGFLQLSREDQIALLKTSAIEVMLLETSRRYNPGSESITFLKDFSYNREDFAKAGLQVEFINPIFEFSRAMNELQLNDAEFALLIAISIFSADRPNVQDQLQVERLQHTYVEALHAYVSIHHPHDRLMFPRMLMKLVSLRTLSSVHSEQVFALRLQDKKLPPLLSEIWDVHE
Assay: AP assay: MPCs infected with Ad-NR1H3 and treated with ligand
Assay type: cell-based
Conditions: for up-regulation of endogenous alkaline phosphatase (AP) activity, dose-response: MPCs infected with Ad-NR1H3, ligand at different concentrations
Experimental: Mesenchymal progenitor cells (MPCs) differentiate into osteoblasts in the presence of appropriate factors (e.g. BMP2). An assay to screen for such factors is developed by monitoring the activity of alkaline phosphatase (AP) enzyme, an early marker in the osteoblast differentiation program. MPCs are seeded in 384 well plates and simultaneously co-infected one day later with adenoviruses encoding the human coxsackie and adenovirus receptor (hCAR; Ad-hCAR) and individual adenoviruses (Ad-cDNA) from the arrayed adenoviral knock-in collection containing cDNA sequences corresponding to genes from “drugable” classes like GPCR's, kinases, proteases, phosphodiesterases and nuclear hormone receptors (the FLeXSelect collection). The majority of these cDNAs are obtained by a PCR-based approach. Briefly, PCR primers are designed for amplification of the complete open reading frame from ATG start codon to the stop codon of drugable genes, based on sequence data present in the RefSeq database. Primers are mixed in an arrayed format at a PCR ready concentration in 96 well plates. As a template for the PCR reactions, placental, fetal liver, fetal brain and spinal cord cDNA libraries are used (from Invitrogen or Edge Biosystems). For the genes encoded by a single exon, PCR reactions are also performed on human genomic DNA. After the amplification reactions, the PCR products are purified with a 96-well PCR clean-up system (Wizard magnesil, Promega, Madison, Wis., USA), digested with the appropriate restriction enzymes (AscI, NotI or SalI restriction sites are included in the primers) and directly cloned into the adenoviral adapter plasmid pIspAdAdapt-10-Zeo (described in U.S. Pat. No. 6,340,595) using DNA ligation kit version 2 (TaKaRa, Berkeley, CA, USA). After a transformation and selection step, multiple clones per gene, one of which is sequence verified, are used for the preparation of plasmid DNA and subsequent generation of adenovirus according to the procedure described in WO99/64582.
Cellular AP activity is determined 6 days after the infection (or ligand addition—see below). The principle of the assays is depicted in FIG. 2. […] Six days after the start of infection or treatment with a ligand, endogenous alkaline phosphatase activity is measured following addition of 4-methylumbelliferyl […] (MUP) substrate.
The stocks of the Ad-control-viruses are generated in 96 well plates (control plate). […] Up-regulation of alkaline phosphatase is read at 6 days post infection (6 dpi): 15 μl 4-Methylumbelliferyl-phosphate (MUP, Sigma) is added to each well, the plates are incubated for 15 min at 37° C. and monitored for AP activity using a fluorescence plate reader (Fluostar, BMG). […]

Row | Compound | induction of AP activity in different MPC isolates (MPCs from 4 different donors, Ad-NR1H3 MOI 2500 + T0901317, 6 days) | up-regulation of endogenous alkaline phosphatase (AP) activity, dose-response
1 | O=S(=O)(c1ccccc1)N(CC(F)(F)F)c1ccc(C(O)(C(F)(F)F)C(F)(F)F)cc1 [T0901317, N-(2,2,2-trifluoroethyl)-N-[4-[2,2,2-trifluoro-1-hydroxy-1-(trifluoromethyl)ethyl]phenyl]-benzenesulfonamide] | induce AP activity to similar extents in all 4 MPC isolates tested; also recorded: induce AP activity independent of the MPC isolate | dose-dependently increase the up-regulation of the endogenous alkaline phosphatase activity; also recorded: AP activity is up-regulated; also recorded: score well
2 | O=C(O)Cc1cccc(OCCCN(Cc2cccc(C(F)(F)F)c2Cl)CC(c2ccccc2)c2ccccc2)c1 [GW3965, 2-(3-(3-(N-(2-chloro-3-(trifluoromethyl)benzyl)-N-(2,2-diphenylethyl)amino)propoxy)phenyl)acetic acid] | – | dose-response relation is observed; also recorded: AP activity is up-regulated; also recorded: Dose-dependent up-regulation of AP activity
3 | CC(=O)Oc1ccc2c(c1)[C@@]1(C)CCC[C@](C)(C(=O)OC(=O)[C@@]3(C)CCC[C@]4(C)c5cc(OC(C)=O)ccc5CC[C@@H]34)[C@@H]1CC2 [APD, acetyl podocarpic dimer] | – | dose-response relation is observed; also recorded: AP activity is up-regulated; also recorded: Dose-dependent up-regulation of AP activity
